Values of other authors in patent publication EP4656183A1, “TIRZEPATIDE COMPOSITIONS AND PREPARATION METHOD” (Galenicum Health SLU, priority 2024, dated 2025).

Conditions: buffer; several values = successive pKa values

O=S(=O)(O)CCN1CCN(CCO)CC1 [HEPES]
pKa: ~ 7.5
